Activity calls are given as the source filed them. No cut-off for these calls is given here.
Legend:
[1] = tested on: NCI-H23; assay: Growth of human NCI-H23 cells at 0.3 uM after 48 hrs by SRB assay; settings: NCI-H23, 48 h
[2] = tested on: NUGC-3; assay: Growth inhibition of human NUGC3 cells at 10 uM after 48 hrs by SRB assay; values are per cent of control; settings: NUGC-3, 48 h
[3] = tested on: HCT-15; assay: Growth inhibition of human HCT15 cells at 10 uM after 48 hrs by SRB assay; values are per cent of control; settings: HCT-15, 48 h
[4] = tested on: HCT-15; assay: Growth inhibition of human HCT15 cells at 1 uM after 48 hrs by SRB assay; values are per cent of control; settings: HCT-15, 48 h
[5] = tested on: ACHN; assay: Growth of human ACHN cells at 0.3 uM after 48 hrs by SRB assay
[6] = tested on: NCI-H23; assay: Growth inhibition of human NCI-H23 cells after 48 hrs by SRB assay; format: functional; settings: NCI-H23, 48 h
[7] = tested on: NUGC-3; assay: Growth inhibition of human NUGC3 cells after 48 hrs by SRB assay; format: functional; settings: NUGC-3, 48 h
[8] = tested on: ACHN; assay: Growth of human ACHN cells at 10 uM after 48 hrs by SRB assay
[9] = tested on: HCT-15; assay: Growth inhibition of human HCT15 cells after 48 hrs by SRB assay; format: functional; settings: HCT-15, 48 h
[10] = tested on: PC-3; assay: Growth inhibition of human PC3 cells after 48 hrs by SRB assay; format: functional; settings: PC-3, 48 h
[11] = tested on: NCI-H23; assay: Growth of human NCI-H23 cells at 10 uM after 48 hrs by SRB assay; settings: NCI-H23, 48 h
[12] = tested on: HCT-15; assay: Growth inhibition of human HCT15 cells at 0.1 uM after 48 hrs by SRB assay; values are per cent of control; settings: HCT-15, 48 h
[13] = tested on: PC-3; assay: Growth inhibition of human PC3 cells at 0.1 uM after 48 hrs by SRB assay; values are per cent of control; settings: PC-3, 48 h
[14] = tested on: PC-3; assay: Growth inhibition of human PC3 cells at 3 uM after 48 hrs by SRB assay; values are per cent of control; settings: PC-3, 48 h
[15] = tested on: NUGC-3; assay: Growth of human NUGC3 cells at 0.3 uM after 48 hrs by SRB assay; settings: NUGC-3, 48 h
[16] = tested on: MDA-MB-231; assay: Growth of human MDA-MB-231 cells at 3 uM after 48 hrs by SRB assay; values are per cent of control; settings: MDA-MB-231, 48 h
[17] = tested on: NCI-H23; assay: Growth inhibition of human NCI-H23 cells at 0.1 uM after 48 hrs by SRB assay; values are per cent of control; settings: NCI-H23, 48 h
[18] = tested on: MDA-MB-231; assay: Growth of human MDA-MB-231 cells at 0.1 uM after 48 hrs by SRB assay; settings: MDA-MB-231, 48 h
[19] = tested on: NUGC-3; assay: Growth of human NUGC3 cells at 1 uM after 48 hrs by SRB assay; settings: NUGC-3, 48 h
[20] = tested on: ACHN; assay: Growth of human ACHN cells at 0.1 uM after 48 hrs by SRB assay
[21] = tested on: MDA-MB-231; assay: Growth inhibition of human MDA-MB-231 cells at 0.3 uM after 48 hrs by SRB assay; values are per cent of control; settings: MDA-MB-231, 48 h
[22] = tested on: HCT-15; assay: Growth of human HCT15 cells at 3 uM after 48 hrs by SRB assay; settings: HCT-15, 48 h
[23] = tested on: MDA-MB-231; assay: Growth of human MDA-MB-231 cells at 10 uM after 48 hrs by SRB assay; settings: MDA-MB-231, 48 h
[24] = tested on: NUGC-3; assay: Growth inhibition of human NUGC3 cells at 3 uM after 48 hrs by SRB assay; values are per cent of control; settings: NUGC-3, 48 h
[25] = tested on: NCI-H23; assay: Growth inhibition of human NCI-H23 cells at 1 uM after 48 hrs by SRB assay; values are per cent of control; settings: NCI-H23, 48 h
[26] = tested on: PC-3; assay: Growth of human PC3 cells at 10 uM after 48 hrs by SRB assay; settings: PC-3, 48 h
[27] = target: Rho-related GTP-binding protein RhoB (Homo sapiens) (UniProt P62745); assay: Transactivation of RhoB (unknown origin) transfected in human HeLa cells at 5 uM measured over 10 secs by dual luciferase reporter gene assay; format: cell-based
Sequence of Rho-related GTP-binding protein RhoB (Homo sapiens) (P62745 whole entry): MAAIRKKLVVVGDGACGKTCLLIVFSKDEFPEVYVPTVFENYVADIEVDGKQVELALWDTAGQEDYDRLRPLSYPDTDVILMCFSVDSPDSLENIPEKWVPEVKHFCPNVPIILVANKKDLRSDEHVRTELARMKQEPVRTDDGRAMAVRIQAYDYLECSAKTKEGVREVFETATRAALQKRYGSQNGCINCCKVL

[28] = tested on: MDA-MB-231; assay: Growth of human MDA-MB-231 cells at 1 uM after 48 hrs by SRB assay; settings: MDA-MB-231, 48 h
[29] = tested on: NUGC-3; assay: Growth of human NUGC3 cells at 0.1 uM after 48 hrs by SRB assay; settings: NUGC-3, 48 h
[30] = tested on: HCT-15; assay: Growth of human HCT15 cells at 0.3 uM after 48 hrs by SRB assay; settings: HCT-15, 48 h
[31] = tested on: ACHN; assay: Growth inhibition of human ACHN cells at 1 uM after 48 hrs by SRB assay; values are per cent of control
[32] = tested on: PC-3; assay: Growth inhibition of human PC3 cells at 1 uM after 48 hrs by SRB assay; values are per cent of control; settings: PC-3, 48 h
[33] = tested on: NCI-H23; assay: Growth inhibition of human NCI-H23 cells at 3 uM after 48 hrs by SRB assay; values are per cent of control; settings: NCI-H23, 48 h
[34] = tested on: ACHN; assay: Growth inhibition of human ACHN cells at 3 uM after 48 hrs by SRB assay; values are per cent of control
[35] = tested on: MDA-MB-231; assay: Growth inhibition of human MDA-MB-231 cells after 48 hrs by SRB assay; format: functional; settings: MDA-MB-231, 48 h
[36] = tested on: ACHN; assay: Growth inhibition of human ACHN cells after 48 hrs by SRB assay; format: functional
[37] = tested on: PC-3; assay: Growth inhibition of human PC3 cells at 0.3 uM after 48 hrs by SRB assay; values are per cent of control; settings: PC-3, 48 h

Row | GI50 [6] [nM] | GI50 [9] [nM] | GI50 [10] [nM] | SMILES | growth, % of control at 0.3 µM [1] [%] | growth, % of control at 10 µM [2] [%] | growth, % of control at 10 µM [3] [%] | growth, % of control at 1 µM [4] [%] | growth, % of control at 0.3 µM [5] [%] | GI50 [7] [nM] | growth, % of control at 10 µM [8] [%] | growth, % of control at 10 µM [11] [%] | growth, % of control at 0.1 µM [12] [%] | growth, % of control at 0.1 µM [13] [%] | growth, % of control at 3 µM [14] [%] | growth, % of control at 0.3 µM [15] [%] | growth, % of control at 3 µM [16] [%] | growth, % of control at 0.1 µM [17] [%] | growth, % of control at 0.1 µM [18] [%] | growth, % of control at 1 µM [19] [%] | growth, % of control at 0.1 µM [20] [%] | other results
1 | 1560 | 860 | 580 | CCCCCCCCCCCCCCCCS(=O)(=O)NCCC[N+](C)(C)C | 93.7 | -37.7 | 1.7 | 73.6 | 119 | 560 | -7.7 | -23.1 | 96 | 100 | -1 | 93.6 | 41 | 86.7 | 103 | 60.2 | 117 | growth, % of control at 0.3 µM [21]: 108%; growth, % of control at 3 µM [22]: 22.4%; growth, % of control at 10 µM [23]: 12.9%; growth, % of control at 3 µM [24]: -5.5%; growth, % of control at 1 µM [25]: 88.6%; growth, % of control at 10 µM [26]: -32.7%; Activity [27]: Active; growth, % of control at 1 µM [28]: 87%; growth, % of control at 0.1 µM [29]: 103%; growth, % of control at 0.3 µM [30]: 93%; growth, % of control at 1 µM [31]: 112%; growth, % of control at 1 µM [32]: 64.6%; growth, % of control at 3 µM [33]: 47.1%; growth, % of control at 3 µM [34]: 80.3%; GI50 [35]: 1390 nM; GI50 [36]: 1890 nM; growth, % of control at 0.3 µM [37]: 102%
2 | 910 | 1200 | 560 | CCCCCCCCCCCCCCCCS(=O)(=O)NCCC[N+](C)(C)CC | 82.9 | -34.3 | 16.3 | 78 | 90.6 | 320 | -6.7 | -21.5 | 90 | 84.1 | -11.8 | 73.5 | 39.3 | 81.3 | 72.6 | 41.8 | 87.7 | growth, % of control at 0.3 µM [21]: 75.7%; growth, % of control at 3 µM [22]: 35.3%; growth, % of control at 10 µM [23]: 9.2%; growth, % of control at 3 µM [24]: 7.5%; growth, % of control at 1 µM [25]: 73.4%; growth, % of control at 10 µM [26]: -32.4%; Activity [27]: Active; growth, % of control at 1 µM [28]: 75.5%; growth, % of control at 0.1 µM [29]: 74.4%; growth, % of control at 0.3 µM [30]: 91.7%; growth, % of control at 1 µM [31]: 76.6%; growth, % of control at 1 µM [32]: 56.3%; growth, % of control at 3 µM [33]: 32.2%; growth, % of control at 3 µM [34]: 48.4%; GI50 [35]: 910 nM; GI50 [36]: 1290 nM; growth, % of control at 0.3 µM [37]: 79.7%
3 | 1290 | 700 | 620 | CCCCCCCCCCCCCCCCS(=O)(=O)N(C)CC[N+](C)(C)C | 101 | 2.7 | 19.5 | 55.3 | 90.3 | 330 | 25.5 | 6.8 | 95.7 | 99.4 | 17.6 | 74.1 | 32.7 | 103 | 98.2 | 32.2 | 99.4 | growth, % of control at 0.3 µM [21]: 95.7%; growth, % of control at 3 µM [22]: 22.4%; growth, % of control at 10 µM [23]: 8%; growth, % of control at 3 µM [24]: 14.4%; growth, % of control at 1 µM [25]: 80.3%; growth, % of control at 10 µM [26]: -3.1%; Activity [27]: Active; growth, % of control at 1 µM [28]: 66.8%; growth, % of control at 0.1 µM [29]: 89.4%; growth, % of control at 0.3 µM [30]: 91.4%; growth, % of control at 1 µM [31]: 69.7%; growth, % of control at 1 µM [32]: 56.8%; growth, % of control at 3 µM [33]: 41.8%; growth, % of control at 3 µM [34]: 51.4%; GI50 [35]: 930 nM; GI50 [36]: 1600 nM; growth, % of control at 0.3 µM [37]: 90.3%

From ChEMBL document CHEMBL2434921, “New synthetic aliphatic sulfonamido-quaternary ammonium salts as anticancer chemotherapeutic agents” (2013)
